# Reference: US4581346A, “Macrolide derivatives” (Eli Lilly and Company, priority 1984, dated 1986)
# Columns and labels:
# Test in all cases: Standard agar-dilution assay, MIC
# Format in all cases: cell-based
# [1] = tested on: Staphylococcus aureus V41; conditions: Staphylococcus aureus V41, penicillin-resistant strain
# Experimental: (§1) The minimal inhibitory concentrations (MIC's) at which the tylosin derivative (formula 1 compound wherein [drawing 11] and R^3 =mycarosyloxy) inhibits certain bacteria are given in Table II. The MIC's in Table II were determined by standard agar-dilution assays.
# [2] = tested on: Staphylococcus epidermidis EPI1
# Experimental: as §1
# [3] = tested on: Streptococcus pyogenes C203
# Experimental: as §1
# [4] = tested on: Staphylococcus aureus X1.1
# Experimental: as §1
# [5] = tested on: Streptococcus pneumoniae Park I
# Experimental: as §1
# Escherichia coli EC14 = tested on: Escherichia coli EC14
# Experimental: as §1
# [6] = tested on: Staphylococcus aureus S13E
# Experimental: as §1
# [7] = tested on: Streptococcus Group D X66
# Experimental: as §1
# [8] = tested on: Haemophilus influenzae C.L.; conditions: ampicillin-sensitive strain
# Experimental: as §1
# Escherichia coli N10 = tested on: Escherichia coli N10
# Experimental: as §1
# [9] = tested on: Haemophilus influenzae 76; conditions: Haemophilus influenzae 76, ampicillin-resistant strain
# Experimental: as §1
# Escherichia coli TEM = tested on: Escherichia coli TEM
# Experimental: as §1
# [10] = tested on: Staphylococcus aureus X400
# Experimental: as §1
# [11] = tested on: Staphylococcus epidermidis EPI2
# Experimental: as §1
# [12] = tested on: Streptococcus Group D 9960; conditions: GROUPD9960
# Experimental: as §1
compound,measurement,setting,value
"CCC1OC(=O)CC(O)C(C)C(OC2OC(C)C(OC3CC(C)(O)C(O)C(C)O3)C(N(C)C)C2O)C2CC(O)C(C)(C2)C(=O)C=CC(C)=CC1COC1OC(C)C(O)C(OC)C1OC (stereo not drawn) [8,20-Cyclo-Tylosin, 8,20-Cyclo-tylosin]",MIC,[1],2 µg/mL
same,MIC,[2],1 µg/mL
same,MIC,[3],1 µg/mL
same,MIC,[4],1 µg/mL
same,MIC,[5],2 µg/mL
same,MIC,Escherichia coli EC14,> 128 µg/mL
same,MIC,[6],2 µg/mL
same,MIC,[7],32 µg/mL
same,MIC,[8],128 µg/mL
same,MIC,Escherichia coli N10,> 128 µg/mL
same,MIC,[9],128 µg/mL
same,MIC,Escherichia coli TEM,> 128 µg/mL
same,MIC,[10],2 µg/mL
same,MIC,[11],0.5 µg/mL
same,MIC,[12],32 µg/mL
